Measurements published in US20260234165A1, “MACROCYCLIC COMPOUNDS, PREPARATION METHOD THEREFOR, AND USE THEREOF” (GENFLEET THERAPEUTICS (SHANGHAI) INC., priority 2004, published 2026).
Where a name gives a salt, the structure may show the parent alone. Read-outs that look alike come from different tables or passages of the source.

How the values were obtained:
Type in all cases: cell-based, human
[1] = test system: p-ERK in NCI-H441 cells (KRAS G12V mutation); experiment: Cell p-ERK assay (HTRF) in NCI-H441 cells; conditions: NCI-H441 cells, 3 h compound incubation, HTRF p-ERK T202/Y204, read-out: H441 p-ERK IC50
In short: (§1)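 In this cellular format, endogenous KRAS-mutant lines grown in RPMI-1640 plus 10% FBS received graded compound concentrations for 3 h at 37 °C. Lysates were incubated 4 h with the phospho-T202/Y204 ERK HTRF antibody pair, and percent inhibition relative to DMSO and blank wells was curve-fitted to give IC50.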

[2] = test system: NCI-H441 cells; experiment: 3D cell proliferation assay (CellTiter Glo-3D), NCI-H441; conditions: medium with 2% FBS, read-out: H441 AP IC50
In short: (§2)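 Luminescence read-out (CellTiter-Glo 3D) after 5-day compound exposure at 37 °C, 5% CO2. Cells: NCI-H441 and AsPC-1, 800/well, RPMI-1640 + 2% FBS, 0.1% DMSO final. IC50 by four-parameter fit of % inhibition against log concentration.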

[3] = test system: AsPC-1 cells (KRAS G12D mutation); experiment: 3D cell proliferation assay (CellTiter Glo-3D), AsPC-1; conditions: medium with 2% FBS, read-out: AsPC-1 AP IC50
In short: as §2

[4] = test system: p-ERK in AsPC-1 cells (KRAS G12D mutation); experiment: Cell p-ERK assay (HTRF) in AsPC-1 cells; conditions: AsPC-1 cells, 3 h compound incubation, HTRF p-ERK T202/Y204, read-out: AsPC-1 p-ERK IC50
In short: as §1

[5] = Homo sapiens, NCI-H441, 3D cell proliferation (CellTiter Glo-3D)
[6] = Homo sapiens, ASPC1, 3D cell proliferation (CellTiter Glo-3D)
[7] = 3D cell proliferation (CellTiter Glo-3D)

CCn1c(-c2cc(C#CCN3CCOC4(CC4)C3)cnc2[C@H](C)OC)c2c3cc(ccc31)-c1csc(n1)C[C@H](NC(=O)[C@H]1[C@H](C)[C@@H]1C)C(=O)N1CCC[C@H](N1)C(=O)OCC(C)(C)C2 [Compound Z369-1, (1r,2R,3S)—N-((6^3S,4S,Z)-1^2-(5-(3-(4-oxa-7-azaspiro[2.5]octan-7-yl)prop-1-yn-1-yl)-2-((S)-1-methoxyethyl)pyridin-3-yl)-1^1-ethyl-10,10-dimethyl-5,7-dioxo-6^1,6^2,6^3,6^4,6^5,6^6-hexahydro-1^1H-8-oxa-2(4,2)-thiazola-1(5,3)-indola-6(1,3)-pyridazinacycloundecaphane-4-yl)-2,3-dimethylcyclopropane-1-carboxamide formate]
IC50 ([1]; Homo sapiens, NCI-H441, 3 h): 0.16 nM
IC50 [2, 5]: 0.21 nM
IC50 [3, 6]: 0.14 nM
IC50 ([4]; Homo sapiens, ASPC1, 3 h): 0.12 nM

CCn1c(-c2cc(C3(N(C)C(=O)CN(C)C)CC3)cnc2[C@H](C)OC)c2c3cc(ccc31)-c1csc(n1)C[C@H](NC(=O)[C@H]1[C@H](C)[C@@H]1C)C(=O)N1CCC[C@H](N1)C(=O)OCC(C)(C)C2 [Compound Z372, (1r,2R,3S)—N-((6^3S,4S,Z)-1^2-(5-(1-(2-(dimethylamino)-N-methylacetamido)cyclopropyl)-2-((S)-1-methoxyethyl)pyridin-3-yl)-1^1-ethyl-10,10-dimethyl-5,7-dioxo-6^1,6^2,6^3,6^4,6^5,6^6-hexahydro-1^1H-8-oxa-2(4,2)-thiazola-1(5,3)-indola-6(1,3)-pyridazinacycloundecaphane-4-yl)-2,3-dimethylcyclopropane-1-carboxamide]
IC50 ([1]; Homo sapiens, NCI-H441, 3 h): 14 nM
IC50 [2, 5]: 6.8 nM
IC50 [3, 6]: 15.3 nM
IC50 ([4]; Homo sapiens, ASPC1, 3 h): 31.4 nM

CCn1c(-c2cc(C#CCN3CC(F)(F)C3)cnc2[C@H](C)OC)c2c3cc(ccc31)-c1csc(n1)C[C@H](NC(=O)[C@H]1[C@H](C)[C@@H]1C)C(=O)N1CCC[C@H](N1)C(=O)OCC(C)(C)C2 [Compound Z390-1, (2R,3S)—N-((6^3S,4S,Z)-1^2-(5-(3-(3,3-difluoroazetidin-1-yl)prop-1-yn-1-yl)-2-((S)-1-methoxyethyl)pyridin-3-yl)-1^1-ethyl-10,10-dimethyl-5,7-dioxo-6^1,6^2,6^3,6^4,6^5,6^6-hexahydro-1^1H-8-oxa-2(4,2)-thiazola-1(5,3)-indola-6(1,3)-pyridazinacycloundecaphane-4-yl)-2,3-dimethylcyclopropane-1-carboxamide]
IC50 ([1]; Homo sapiens, NCI-H441, 3 h): 0.4 nM
IC50 [2, 5]: 0.48 nM
IC50 [3, 6]: 0.54 nM
IC50 ([4]; Homo sapiens, ASPC1, 3 h): 0.34 nM

CCn1c(-c2cc(OCCN3CCC4(CC4)C3)cnc2[C@H](C)OC)c2c3cc(ccc31)-c1csc(n1)C[C@H](NC(=O)[C@H]1[C@H](C)[C@@H]1C)C(=O)N1CCC[C@H](N1)C(=O)OCC1(CC1)C2 [Compound Z415, (1r,2R,3S)—N-((3′S,4′S,Z)-2′-(5-(2-(5-azaspiro[2.4]heptan-5-yl)ethoxy)-2-((S)-1-methoxyethyl)pyridin-3-yl)-1′-ethyl-5′,7′-dioxaspiro[cyclopropane-1,10′-8-oxa-2(4,2)-thiazola-1(5,3)-indola-6(1,3)-pyridazinacycloundecaphan]-4′-yl)-2,3-dimethylcyclopropane-1-carboxamide]
IC50 ([1]; Homo sapiens, NCI-H441, 3 h): 11.7 nM
IC50 [2, 5]: 7.54 nM
IC50 [3, 6]: 12.6 nM
IC50 ([4]; Homo sapiens, ASPC1, 3 h): 10.1 nM

CCn1c(-c2cc(OCC3(N4CCS(=O)(=O)CC4)CC3)cnc2[C@H](C)OC)c2c3cc(ccc31)-c1csc(n1)C[C@H](NC(=O)[C@H]1[C@H](C)[C@@H]1C)C(=O)N1CCC[C@H](N1)C(=O)OCC(C)(C)C2 [Compound Z449, (1r,2R,3S)—N-((6^3S,4S,Z)-1^2-(5-((1-(1,1-dioxidothiomorpholino)cyclopropyl)methoxy)-2-((S)-1-methoxyethyl)pyridin-3-yl)-1^1-ethyl-10,10-dimethyl-5,7-dioxo-6^1,6^2,6^3,6^4,6^5,6^6-hexahydro-1^1-hydrogen-8-oxa-2(4,2)-thiazola-1(5,3)-indola-6(1,3)-pyridazinacycloundecaphane-4-yl)-2,3-dimethylcyclopropane-1-carboxamide]
IC50 [1]: 0.33 nM
IC50 [2, 7]: 0.34 nM
IC50 [3, 7]: 0.45 nM
IC50 [4]: 0.21 nM

CCn1c(-c2cc(CCN3CCS(=O)(=O)CC3)cnc2[C@H](C)OC)c2c3cc(ccc31)-c1csc(n1)C[C@H](NC(=O)[C@H]1[C@H](C)[C@@H]1C)C(=O)N1CCC[C@H](N1)C(=O)OCC(C)(C)C2 [Compound Z485A, (1r,2R,3S)—N-((6^3S,4S,Z)-1^2-(5-(2-(1,1-dioxidothiomorpholino)ethyl)-2-((S)-1-methoxyethyl)pyridin-3-yl)-1-ethyl-10,10-dimethyl-5,7-dioxo-6^1,6^2,6^3,6^4,6^5,6^6-hexahydro-1^1H-8-oxa-2(4,2)-thiazola-1(5,3)-indola-6(1,3)-pyridazinacycloundecaphane-4-yl)-2,3-dimethylcyclopropane-1-carboxamide]
IC50 [1]: 1.14 nM
IC50 [2, 7]: 1 nM
IC50 [3, 7]: 2.4 nM
IC50 [4]: 1.45 nM

CCn1c(-c2cc(N3CCN(C)CC3)cnc2[C@H](C)OC)c2c3cc(ccc31)-c1csc(n1)C[C@H](Nc1cc(C)cnn1)C(=O)N1CCC[C@H](N1)C(=O)OCC(C)(C)C2 [Compound Z559, (6^3S,4S,Z)-1^1-ethyl-(R3)-1^2-(2-((S)-1-methoxyethyl)-5-(4-methylpiperazin-1-yl)pyridin-3-yl)-10,10-dimethyl-4-((5-methylpyridazin-3-yl)amino)-6^1,6^2,6^3,6^4,6^5,6^6-hexahydro-1^1H-8-oxa-2(4,2)-thiazola-1(5,3)-indola-6(1,3)-pyridazinacycloundecaphane-5,7-dione]
IC50 ([1]; Homo sapiens, NCI-H441, 3 h): 14.6 nM
IC50 [2, 5]: 17.5 nM
IC50 [3, 6]: 47.5 nM
IC50 ([4]; Homo sapiens, ASPC1, 3 h): 45 nM

CCn1c(-c2cc(OCCN3CCS(=O)(=O)CC3)cnc2[C@H](C)OC)c2c3cc(ccc31)-c1csc(n1)C[C@H](NC(=O)C(C)C(C)C)C(=O)N1CCC[C@H](N1)C(=O)OCC(C)(C)C2 (stereo partly drawn) [Compound Z607, N-((6^3S,4S,Z)—(R4)-1^2(5-(2-(1,1-dioxidothiomorpholino)ethoxy)-2-((S)-1-methoxyethyl)pyridin-3-yl)-1^1-ethyl-10,10-dimethyl-5,7-dioxo-6^1,6^2,6^3,6^4,6^5,6^6-hexahydro-1^1H-8-oxa-2(4,2)-thiazola-1(5,3)-indola-6(1,3)-pyridazinacycloundecaphane-4-yl)-2,3-dimethylbutanamide]
IC50 [1]: 0.45 nM
IC50 [2, 7]: 0.36 nM
IC50 [3, 7]: 1.12 nM
IC50 [4]: 0.54 nM

CCn1c(-c2cc(OCC(C)(C)N3CCS(=O)(=O)CC3)cnc2[C@H](C)OC)c2c3cc(ccc31)-c1csc(n1)C[C@H](NC(=O)[C@H]1[C@H](C)[C@@H]1C)C(=O)N1CCC[C@H](N1)C(=O)OCC(C)(C)C2 [Compound Z667A]
IC50 [1]: 1.6 nM
IC50 [2, 7]: 1.31 nM
IC50 [3, 7]: 2.97 nM
IC50 [4]: 2.6 nM

CCn1c(-c2cc(C#CCN3CCN(C)S(=O)(=O)CC3)cnc2[C@H](C)OC)c2c3cc(ccc31)-c1csc(n1)C[C@H](NC(=O)[C@H]1[C@H](C)[C@@H]1C)C(=O)N1CCC[C@H](N1)C(=O)OCC(C)(C)C2 [Compound Z847, (1r,2R,3S)—N-((6^3S,4S,Z)—1′-ethyl-(2-((S)-1-methoxyethyl)-5-(3-(2-methyl-1,1-dioxido-1,2,5-thiadiazepan-5-yl)prop-1-yn-1-yl)pyridin-3-yl)-10,10-dimethyl-5,7-dioxo-6^1,6^2,6^3,6^4,6^5,6^6-hexahydro-1^1H-8-oxa-2(4,2)-thiazola-1(5,3)-indola-6(1,3)-pyridazinacycloundecaphane-4-yl)-2,3-dimethylcyclopropane-1-carboxamide]
IC50 ([1]; Homo sapiens, NCI-H441, 3 h): 0.13 nM
IC50 [2, 5]: 0.29 nM
IC50 [3, 6]: 0.13 nM
IC50 ([4]; Homo sapiens, ASPC1, 3 h): 0.11 nM
